Literature values, collected in patent US9302241B2, “Method of preparing lipid nanoparticles” (UNIVERSITE D'ANGERS, priority 2008, dated 2016).

Conditions: concentration of Fondaparinux in its brand form Arixtra

solubility in water: greater than 12.5 mg/ml
Substance: Fondaparinux
